# Source: patent publication US5728686A, “Alkylxanthine phosphonates and alkylxanthine phosphine oxides and their use as pharmaceuticals” (Hoechst Aktiengesellschaft, priority 1996, dated 1998)
# Columns and labels:
# [1] = system: Endotoxin (LPS) from Salmonella abortus equi; assay: effect on endotoxin fatality (LPS-induced septic shock); assay type: in vivo, female NMRI mice; details: 25 mg/kg i.p. at the same time as LPS 60 mg/kg i.p.; 72 hours; vs placebo control
# Experimental: 2. Test for effect on endotoxin fatality
# Individual injections of lipopolysaccharide (LPS), from gram-negative bacteria, lead via a series of various symptoms to septic shock, which usually turns out to be fatal. Endotoxin (LPS) from Salmonella abortus equi in a dose of 60 mg/kg i.p. leads to shock and to death with at most 72 h p.a. (the dose of 60 mg/kg corresponds to approximately 1.20 mg of LPS/animal).
# The experimental animals used are female NMRI mice from the Hoechst AG/Hattersheim animal breeding unit having a body weight of 22 to 24 g.
# The test substances administered intraperitoneally (i.p.) in an administration volume of 10 ml/kg at the same time as the LPS. The number of surviving animals after 72 hours' LPS administration is indicated in comparison to a placebo control. The number of tested animals per group is 5; dose 25 mg/kg.
# [2] = system: isolated guinea pig lung strips, leukotriene D4 (LTD4); assay: antagonist of LTD4-induced contraction of isolated guinea pig lung strips; assay type: cell-based; details: Cavia porcellus, read-out: Anticontractile action (lung), LTD4: concentration range corresponding to the IC50 value
# Excerpt: (§1) 4. Activity as an antagonist of the contraction of isolated guinea pig lung strips
# (§2) The test carried out is based on the same principle as the test indicated in the pharmacological test 3; however, lung strips are used here.
# (§3) Preparation of the organ sections and experimental procedure:
# (§4) The guinea pig is sacrificed under laughing gas anaesthesia. The entire pulmonary tract is exposed starting from the trachea. The lobes of the lung are cut in a circular fashion such that 3 mm wide strips are formed. The strips of the upper lobes are divided in order to obtain a total of six approximately equal size strips. The strips are suspended in the organ baths under a preload of 4 g. The nutrient solutions used are modified Krebs Henseleit solutions. When using "Platelet activating factor" (PAF) as an […], the composition of this solution corresponds to that for the agonist SP in "Test 3"; for the agonist LTD4 a Krebs Henseleit solution as in the case of the agonist KCl (Test 3) is used. 95% by volume O2, 5% by volume CO2 is used for bubbling through the bath; the bath temperature is 37° C. The experimental procedure is carried out in a therapeutically cumulative methodology, using the dosage graduations 1, 3, 6 and 10 μg/ml.
# (§5) The experimental animals, organ bath, vehicles and manner of administration correspond to that stated in pharmacological test 3.
# (§6) All numerical values are indicated in the unit μg/ml and relate to the concentration range of tested compound of the formula I (see example numbers in Table 1) which is necessary in order to cause a contraction which corresponds to the IC50 value.
# phosphodiesterase III = assay: inhibition of phosphodiesterase III activity; assay type: biochemical; details: at 100 μM
# Experimental: 5. Inhibition of phosphodiesterase III activity
# The test is carried out using phosphodiesterase from Boehringer Mannheim (Mannheim, Germany), Order No. 108 243 according to the method of T. SAEKI, I. SAITO, Biochem. Pharm. 46, No. 5, […], pages 833-839.
# All numerical values are indicated in % inhibition of the enzyme activity at 100 μM of the corresponding compound of the formula I.
# [3] = system: isolated guinea pig trachea, agonist calcium ionophore A23187; assay: antagonist of calcium ionophore A23187-induced contraction of isolated guinea pig trachea; assay type: cell-based; details: Cavia porcellus, 37° C., read-out: Anticontractile action (trachea), Ca ionophore: concentration range for dilatation corresponding to ED50 range
# Excerpt: (§7) 3. Activity as antagonist of the contraction of isolated guinea pig trachea
# (§8) The compounds of the formula I are used as antagonists of the contraction of isolated guinea pig trachea. The agonists employed were PGF2α (Upjohn, Germany), calcium ionophore A23187 (Calbiochem, Bad Soden, Germany), and substance P (American Peptide Comp., USA):
# b) Calcium ionophore A23187 (Calbiochem, Bad Soden) acts by increased uptake of calcium ions, and an activation of all calcium-dependent signal cascades in the cell. Lipoxygenase inhibitors, in particular, and generally antiinflammatory substances show effects in this model.
# as §3
# (§9) The guinea pig is sacrificed by means of terminal laughing gas anaesthesia. The trachea is exposed along its entire length and cut into 15 individual cartilage rings. 5 rings in each case are tied together to give a chain and fixed in the organ bath under a preload of 3 g. After an equilibration time of 45 minutes, a contraction is produced using the agonist. The antagonist (test preparation) is added cumulatively on the plateau of the maximum. Evaluation is carried out in % force change relative to the contraction maximum. The experimental procedure is carried out at 37° C.; the physiological nutrient solution used is a modified Krebs-Henseleit solution through which is bubbled 95% by volume of O2, 5% by volume of CO2.
# (§10) Experimental animals: albino guinea pigs (Hattersheim Animal Breeding Institute, Kastengrund, Germany), weight: 200 to 300 g, sex male or female.
# (§11) Vehicle: double-distilled water, ethanol or isopropanol; administration: into the organ bath number of administration: cumulative, in SP individual doses
# (§12) All numerical values are indicated in the unit μg/ml and relate to the concentration range of the tested compound of the formula I according to the invention (see example numbers in Table 1) which is necessary in order to cause a dilatation which corresponds to the ED50 range.
# [4] = system: isolated guinea pig trachea, agonist PGF2α; assay: antagonist of PGF2α-induced contraction of isolated guinea pig trachea; assay type: cell-based; details: Cavia porcellus, 37° C., read-out: Anticontractile action (trachea), PGF2α: concentration range for dilatation corresponding to ED50 range
# Excerpt: as §7, §8
# Inhibition of contractions which are induced by this cyclooxygenase product is only possible by competitive antagonism at the receptor or of the subsequent signal pathway.
# as §3, §9, §10, §11, §12
# [5] = system: isolated guinea pig trachea, agonist substance P; assay: antagonist of substance P-induced contraction of isolated guinea pig trachea; assay type: cell-based; details: Cavia porcellus, individual doses, 37° C., read-out: Anticontractile action (trachea), SP antagonism: concentration range for dilatation corresponding to ED50 range
# Excerpt: as §7, §8
# The antagonism is possible on the one hand due to specific receptor antagonists, and on the other hand also due to inhibition of the subsequent signal pathway. Preparations which directly or indirectly increase the intracellular concentration of cyclic nucleotides in particular show spasmolytic properties here.
# as §3, §9, §10, §11, §12
# [6] = system: isolated guinea pig lung strips, Platelet activating factor (PAF); assay: antagonist of PAF-induced contraction of isolated guinea pig lung strips; assay type: cell-based; details: Cavia porcellus, read-out: Anticontractile action (lung), PAF: concentration range corresponding to the IC50 value
# Excerpt: as §1, §2, §3, §4, §5, §6
# [7] = system: muscle group (gastrocnemius, plantaris and soleus) of the immobilized right rear extremity; assay: rat muscle function test: direct electrical stimulation of muscle group after 3 weeks' immobilization; assay type: in vivo, male Wistar rats; details: oral, 1x per day for 3 weeks, as a rule 25 mg/kg, ≤-12% classified as active; for Force (force under the contraction curve, right/left difference): isometric stimulation, control difference approx. 25%; for Work (performed work, right/left difference): isotonic stimulation, control approx. -25%
# Excerpt: (§13) 1. Activity in the rat muscle function test
# (§14) Male Wistar rats (body weight about 300 g) were kept under standard conditions with feed and water ad libitum. The right rear extremity was immobilized by fitting a kind of "shoe" to the animals under short-term anaesthesia. Two ergonomically fitted halves of the "shoe" were cast from a liquid plastic material which is also used for the production of dental prostheses, these were put onto the animal under brief anaesthesia and joined with the aid of a wire. The material is light but hard, so that the animals cannot gnaw the material, and the "shoe" can be opened at any time to examine the condition of the immobilized extremity. The two halves were moreover padded out with chamois leather in order to avoid compressions and possible injuries due to rubbing. The system also has the advantage that the angle of immobilization is standardized in all animals; this would not be possible with a plaster cast. The chosen angle allows the animals to take up a normal sitting position despite the "shoe" and also to carry the body weight using this extremity. Only complete stretching or bending of the leg is impossible.
# (§15) After 3 weeks' immobilization of the right rear extremity and simultaneous oral administration of test preparations (1× per day using a stomach tube; as a rule 25 mg/kg of body weight, in carboxymethylcellulose, the animals were weighed and anaesthetized with pentobarbital (35 mg/kg i.p.). Functional parameters were measured during direct electrical stimulation of a muscle group (gastrocnemius, plantaris and soleus). This muscle group, merely called "muscle" in the following, was exposed at the ankle tendon and tied to a force transducer via the tendon.
# To determine the contractile force, the muscles were stimulated isometrically, i.e. a preload of 0.5N was applied and the muscle was stimulated by means of a series of electrical pulses, which led to a maximum contraction, every 0.7 sec for 80 msec for a period of 15 min. […] The area under this contraction curve was evaluated and the difference in percent between the right atrophic and left normal muscle compared (force under the contraction curve as difference in percent (Δ%)). The difference in the control group is approximately 25%.
# An isotonic muscle stimulation was used to determine the performed work of the muscle over time. In this type of measurement, the shortening of the muscle during contraction is used as a basis. To this end, a preload which corresponds to the body weight was applied to the muscles. A series of stimulation pulses (80 msec) were triggered every 3 sec and the muscle was stimulated for 15 min. The data (contraction force and distance travelled) were converted to the work performed in the unit J using an automated system. The difference in the work performed between the immobilized atrophic and the normal muscle in the control animals was approximately -25%.
# Values which are positive indicate that the functional parameters of the immobilized muscle were better than those of the contralateral normal muscle.
# soleus muscle = assay: rat muscle function test: muscle weight (atrophy of immobilized extremity); assay type: in vivo, male Wistar rats; details: oral, 1x per day for 3 weeks, as a rule 25 mg/kg, difference ≤25% classified as an effect
# Excerpt: as §13, §14
# In spite of this, a significant decrease in the skeletal muscle mass (atrophy) of the immobilized extremity occurred, to be precise up to -35% in comparison with the contralateral nonimmobilized rear extremity. As the soleus muscle was the most severely affected, the changes in muscle weight after administration of preparation shown in Table 1 relate to this muscle. A difference of ≤25% between the right immobilized and left non-immobilized rear extremity was classified as an effect.
# as §15
Structure (SMILES),Inhibition of mortality [1],IC50 [2],PDE III Inhibition (phosphodiesterase III),EC50 [3],EC50 [4],EC50 [5],IC50 [6],"Force (force under the contraction curve, right/left difference) [7]","Work (performed work, right/left difference) [7]",Muscle weight (right/left difference) (soleus muscle)
"CCCCn1cnc2c1c(=O)n(CCCP(=O)(OCC)OCC)c(=O)n2CCCC [Example 40, Diethyl [3-(3,7-dibutylxanthin-1-yl)propyl]phosphonate]",100%,,,,,,,,,
"CCOP(=O)(CCCCn1c(=O)c2c(ncn2Cc2ccccc2)n(C)c1=O)OCC [Example 23, Diethyl [4-(7-benzyl-3-methylxanthin-1-yl)butyl]phosphonate]",,1 to 3 µg/mL,65%,> 10 µg/mL,> 10 µg/mL,10 to 30 µg/mL,1 to 3 µg/mL,,,
"CCOP(=O)(CCCCn1c(=O)c2c(ncn2CC)n(C)c1=O)OCC [Example 30, Diethyl [4-(7-ethyl-3-methylxanthin-1-yl)butyl]phosphonate]",,6 to 10 µg/mL,,10 µg/mL,> 10 µg/mL,10 to 30 µg/mL,3 to 6 µg/mL,+2 Δ %,+5 Δ %,0 Δ %
"CCCn1cnc2c1c(=O)n(CCCCP(=O)(OCC)OCC)c(=O)n2CC [Example 38, Diethyl [4-(3-ethyl-7-propylxanthin-1-yl)butyl]phosphonate]",60%,,,10 µg/mL,> 10 µg/mL,10 to 30 µg/mL,1 to 3 µg/mL,-10 Δ %,-3 Δ %,
CCCn1cnc2c1c(=O)n(CCCP(=O)(OCC)OCC)c(=O)n2C1CC1 [Example 39],100%,3 to 6 µg/mL,65%,,,,,,,
"CCOP(=O)(CCCn1c(=O)c2c(ncn2CC)n(C)c1=O)OCC [Example 34, Diethyl [3-(7-ethyl-3-methylxanthin-1-yl)propyl]phosphonate]",60%,,82%,,,,,-5 Δ %,-11 Δ %,
"CCOP(=O)(CCCCn1c(=O)c2[nH]cnc2n(C)c1=O)OCC [Example 24, Diethyl [4-(3-methylxanthin-1-yl)-butyl]phosphonate]",100%,,,,> 10 µg/mL,30 to 60 µg/mL,,+6 Δ %,-5 Δ %,-20 Δ %
"CCOP(=O)(CCCCn1cnc2c1c(=O)n(CC)c(=O)n2C)OCC [Example 4, Diethyl [4-(1-ethyl-3-methylxanthin-7-yl)butyl]phosphonate]",,,,> 10 µg/mL,> 10 µg/mL,10 to 30 µg/mL,1 to 3 µg/mL,,,
"CCOP(=O)(CCCn1c(=O)c2c(ncn2CCOC)n(C)c1=O)OCC [Example 35, Diethyl [3-(7-methoxyethyl-3-methylxanthin-1-yl)propyl]phosphonate]",,,,> 10 µg/mL,,30 to 60 µg/mL,3 to 6 µg/mL,,,
